Measurements reported in patent US20220265646A1, “PIEZO AGONISTS FOR PREVENTING OR REVERTING ABNORMAL AMYLOID DEPOSITION” (ITÄ-SUOMEN YLIOPISTO, priority 2019, published 2022).

Key:
N2a cells = experiment: Apoptosis assay in N2a cells under hypoxia; format: cell-based; conditions: 5 μM Yoda1 three days, 1% hypoxia 24 h
Method: Apoptosis assay in N2a cells. N2a cells were treated with 5 μM Yoda1 or vehicle for three consecutive days and exposed to 1% hypoxia as described above for 24 h before collecting the cells for apoptosis assay. The apoptotic cells were labeled with APC Annexin Ready Flow -dye (1:12.5 dilution, Invitrogen, Carlsbad, Calif., USA) in Annexin V Binding Buffer (10 mM HEPES, 150 mM NaCl, 2.5 mM CaCl2 in PBS, pH 7.4). 4′,6-Diamidino-2-Phenylindole, Dilactate (DAPI; Invitrogen, Carlsbad, Calif., USA) staining was added at 1:3300 dilution to label late apoptotic and necrotic cells. The samples were run with CytoFLEX S instrument (Beckman Coulter Life Sciences, Indianapolis, Ind., USA), and the results were analysed with CytExpert software (version 2.3.0.84, Beckman Coulter Life Sciences, Indianapolis, Ind., USA). The results of hypoxic samples were normalized to corresponding normoxic samples.

[1] = system: 5xFAD transgenic mice modeling Alzheimer's disease; experiment: 5xFAD transgenic mice, intraventricular cannula infusion, immunohistochemistry for Iba1 and Aβ (WO2); format: in vivo, mouse; conditions: 5xFAD mice, treated for 2 weeks
From the text: To evaluate the effect of microglial Piezo1 Rs mechanosensor in vivo the present inventors used 5-month-old transgenic SXFAD male mice (Jackson Laboratories, Bar Harbor, Me., US) which were randomly divided into 3 groups. 5xFAD mice express human APP and PSEN1 transgenes with a total of five AD-linked mutations: the Swedish (K670N/M671L), Florida (1716V), and London (V7171) mutations in APP, and the M146L and L286V mutations in Presenilin-1 (PSEN1). These widely used mice recapitulate many AD-related phenotypes and have a relatively early and aggressive presentation. Amyloid plaques, accompanied by gliosis, are seen in mice as young as two months of age. Amyloid pathology is more severe in females than in males. Neuron loss occurs in multiple brain regions, beginning at about 5 months in the areas with the most pronounced amyloidosis. Mice display a range of cognitive and motor deficits. The animals were implanted with the intraventricular cannulas. Briefly, surgical anesthesia was induced using 5% isoflurane and maintained with 1.8% isoflurane (in 30% 02/70% N20). The temperature of the animals was maintained at 37±0.5° C. using a thermostatically controlled heating blanket with a rectal probe (Pan Lab, Harvard Apparatus). After the skull was exposed a small hole approximately 1 mm in diameter was drilled into the left hemisphere of the skull using following coordinates: m/l (medial/lateral) +1.1 mm, a/p (anterior/posterior) −0.3 mm, d/v (dorsal/ventral) −2.0 mm. […]
Brain sample preparation and Immunohistochemistry. […] Next, Aβ deposits and microglial were detected. […] For quantification of Aβ and Iba1 immunoreactivities, the stained sections were imaged using 10× magnification in Zeiss Axio ImagerM.2 microscope equipped with Axiocam 506 mono CCD camera (Carl Zeiss, Oberkochen) running ZEN software (Carl Zeiss) for tailing and stitching of the images. Cortical and hippocampal Aβ and Iba1 immunoreactivities were quantified from 6 stained sections at 400 μm intervals per animal using MatLab code (MathWorks, MatLab 2017b). […]

[2] = 0.05 μg/μl, 5 μl infusion once a day

Question: How did the hypoxia-induced early apoptosis (N2a cells) turn out when `Clc1cccc(Cl)c1CSc1nnc(-c2cnccn2)s1` [Yoda1] was run?
Answer: Its hypoxia-induced early apoptosis is “almost completely block”.

Question: And the hypoxia-induced late apoptosis (N2a cells)?
Answer: The hypoxia-induced late apoptosis was “almost completely block”.

Question: And the “microglial accumulation near the Aβ deposits” value [1]?
Answer: Its value is “enhanced microglial accumulation”.

Question: What about the “Iba1 immunoreactivity in cortex and hippocampus” value [1, 2] of the same molecule?
Answer: Its value is “significantly increased”.

Question: And the “extent of brain Aβ load in cortex and hippocampi (WO2 staining)” value [1, 2]?
Answer: The value was “significant reduction”.
